In US10473574B2, “Assembly for assessing drug permeability with adjustable biomimetic properties” (Syddansk Universitet, priority 2014, dated 2019):

Legend:
in vitro = test: in vitro
Procedure: A sheet of cellulose hydrate was prewashed in demineralized water. The sheet was put on a flat surface and sprayed with a 1% (M/M) solution of egg yolk lecithin (E-80, Lipoid GmbH, Ludwigshafen, Germany) in ethanol. […] Once the organic solvent was evaporated, two coated sheets were placed one upon the other, sandwiching the phospholipids.
Frantz cells with a permeation surface of 1 cm^2, a maximum volume in the upper compartment of 1.8 mL and a fixed volume in the bottom compartment of 8 mL were used.
The barrier was placed in between of the donor and the acceptor chamber, and a permeability experiment was performed at 25° C. […]
8 mL of phosphate buffer solution was placed into the lower compartment. The barrier was placed, and at time zero (start of the experiment) 1.5 mL of a 10 mM phosphate buffer solution of calcein was placed in the upper compartment. Every 60 minutes, 0.2 mL of the solution in the lower compartment were withdrawn and calcein concentration quantified by fluorescence spectroscopy. The removed volume was replaced with an equivalent amount of fresh buffer.
For all permeability studies, Franz diffusion cells with a surface area of 1 cm^2, upper chamber nominal volume of 2 mL and lower chamber volume of 8 mL were employed. The donor phase (upper chamber) was filled with 1.5 mL hydrophilic marker calcein (5 mM) and different surfactants and solvents, whereas the acceptor compartment (lower chamber) was filled with 8 mL PBS (7.4±0.05). The barrier was placed between the donor and acceptor compartment and the flux (3) of calcein was measured over time. The permeability studies were carried out over a 5 hours period, and samples of 200 μL were withdrawn from the acceptor chamber every 30 min for the first 2 hours and then every 60 min. The withdrawn sample volume was replaced with an equal amount of fresh PBS at each time point. […]

[1] = Permeability of calcein through the empty barrier support (no lipid layer); assay type: in vitro ADME; settings: pH 7.4, calcein 5 mM donor, PBS acceptor
Excerpt: It is visible that the permeation of calcein through the empty barrier support is much faster. Specifically, the permeability of calcein is approx. 10 times higher as compared to the barrier of the present invention.

Cn1c(=O)c2c(ncn2C)n(C)c1=O [caffeine]
permeability with FeSSIF as acceptor media versus other acceptor media (in vitro): unchanged

O=C(O)CN(CC(=O)O)Cc1cc2c(cc1O)Oc1cc(O)c(CN(CC(=O)O)CC(=O)O)cc1C21OC(=O)c2ccccc21 [calcein]
Papp at 5 h, 5 mM [1]: 16.5 ± 1 ×10⁻⁶ cm/s | change of permeability with Polysorbat 80 (in vitro): not increased, but decreased | influence of lipid composition of the barrier on permeability (in vitro): strong influence | increase of permeability with 5% Cremophor relative to PBS (in vitro; 5 h, 5 mM, pH 7.4): ~2 fold | Papp at 5 h, 5 mM (in vitro; pH 7.4, Papp in PBS): 2.7 ± 0.5 ×10⁻⁶ cm/s | Papp (in vitro; pH 7.4, permeability coefficient (P)): 1.2 ± 0.1 ×10⁻⁶ cm/s

CC(C)Cc1ccc(C(C)C(=O)O)cc1 (stereo not drawn) [ibuprofen]
influence of lipid composition of the barrier on permeability (in vitro): strong influence

CC(C)(C)NCC(O)COc1cccc2c1CC(O)C(O)C2 (stereo not drawn) [nadolol]
influence of lipid composition of the barrier on permeability (in vitro): strong influence
